From BindingDB's records for doi:10.1021/jm801211c (Intervet Innovation, 2009)

Molecular target: Mu-type opioid receptor (Homo sapiens, UniProt P35372)
Assay: Mu Opioid Receptor Binding Assay and Antagonist Functionality Assay
Conditions: pH 7.4; 22 °C
Procedure: In the binding assays, the results were expressed as percent inhibition of the control radioligand specific binding. The IC50 values (concentration causing a half maximal inhibition of control specific binding) were determined by non-linear regression analysis of the competition curves using Hill equation curve fitting. The inhibition constants (Ki) were calculated from the Cheng Prusoff equation. EC50/IC50 measures the antagonist activities on mu-agonist triggered luminescence in AequoScreen cells.

Chain of Mu-type opioid receptor (P35372 whole entry): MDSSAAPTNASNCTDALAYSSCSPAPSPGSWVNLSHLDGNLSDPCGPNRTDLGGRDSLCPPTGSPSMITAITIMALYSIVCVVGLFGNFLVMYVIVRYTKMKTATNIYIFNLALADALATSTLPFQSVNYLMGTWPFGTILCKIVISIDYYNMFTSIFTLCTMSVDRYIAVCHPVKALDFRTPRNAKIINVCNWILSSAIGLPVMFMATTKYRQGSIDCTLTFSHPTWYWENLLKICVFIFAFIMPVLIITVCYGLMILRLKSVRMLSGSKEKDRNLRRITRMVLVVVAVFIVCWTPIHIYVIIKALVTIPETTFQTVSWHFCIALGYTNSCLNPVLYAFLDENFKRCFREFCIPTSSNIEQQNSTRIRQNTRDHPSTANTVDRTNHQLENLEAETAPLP

SMILES	EC50
CC(C)N[C@@H]1CCn2c(=O)[nH]c3cccc(c32)[C@H]1O [(9R,10R)-9-hydroxy-10-(propan-2-ylamino)-1,3-diazatricyclo[6.4.1.0^{4,13}]trideca-4(13),5,7-trien-2-one]	> 1000 µM
CC(C)N[C@H]1CCn2c(=O)[nH]c3cccc(c32)[C@@H]1O [(9S,10S)-9-hydroxy-10-(propan-2-ylamino)-1,3-diazatricyclo[6.4.1.0^{4,13}]trideca-4(13),5,7-trien-2-one]	140 µM
